Data on 2 substances can be found in patent publication US11198678B1, “Plakortinic acids A and B: cytotoxic cycloperoxides with a unique bicyclo[4.2.0]octene unit from sponges of the genera Plakortis and Xestospongia” (University of Puerto Rico, priority 2016, dated 2021).

Assay [1] has as its system A2058 melanoma cells. Description: MTS cell viability (cytotoxicity) assay, A2058 melanoma cells. The following applies: 48 h treatment. It is filed as cell-based, human. Here is the method:
(§1) DU-145 human prostate cancer and A2058 melanoma cell lines were obtained from ATCC. These cells were cultured in RPMI-1640 or DMEM medium containing 10% fetal bovine serum (FBS), 100 units/mL penicillin, and 100 μg/mL streptomycin. All cells were maintained in a 5% CO2 atmosphere at 37° C. To determine the viability of the cells, Promega CellTiter 96 aqueous nonradioactive cell proliferation assays (MTS) were performed as described by the supplier (Promega; Madison, Wis.). Briefly, cells (5000/well) were seeded in 96-well plates and incubated overnight at 37° C. in 5% CO2. Cells were treated for 48 h with each compound. The concentration used was 10 μM. Dimethyl sulfoxide (DMSO) was used as the vehicle control. IC50 values of compounds were determined in a dose-dependent manner (0.1, 0.5, 1, 5, 10, 20, and 50 μM). Cell viability was determined by tetrazolium conversion to its formazan dye, and absorbance of formazan was measured at 490 nm using an automated ELISA plate reader. The production of formazan dye was directly proportional to the number of living cells. Each experiment was done in quadruplicate in the absence of a positive control.

The test system of assay [2] is DU-145 human prostate cancer cells. Briefly: MTS cell viability (cytotoxicity) assay, DU-145 prostate cancer cells. In kind it is cell-based. The following applies: 48 h treatment. Here is the method:
as §1

With plakortinic acid A [compound 2], the IC50 (usually the concentration needed to halve the response being measured) in assay [1] turned out to be 300 nM; in assay [2] it was 500 nM.
Consider “plakortinic acid B methyl ester [compound 4]”, for which the concentration for half-maximal inhibition (IC50) in assay [1] was 4700 nM; in assay [2], 5900 nM.
